Test results: patent US6509011B1, “Method of hair treatment using organic amino compounds” (Unilever Home & Personal Care USA, division of Conopco, Inc., priority 1999, dated 2003)

Assay: Cuticle abrasion of treated hair switches
Experimental: Cuticle abrasion and sensory experiments were performed on bleached hair with unbleached “virgin” hair as a control.
A shampoo base was used to treat hair switches:
Two samples of the above formulation were prepared, with the addition of 0.2% arginine to one of the samples.
Four sets of switches were used and treated as follows:
Set 1. Bleached switches washed 6 times in base, with final base wash containing 0.2% arginine.
Set 2. Bleached switches based washed 6 times in base with 0.2% arginine
Set 3. Bleached switches washed 6 times in base without 0.2% arginine
Set 4. Unbleached virgin hair washed in base without arginine.
The treated samples were subjected to cuticle abrasion (in duplicate).

N=C(N)NCCC[C@H](N)C(=O)O [arginine]
cuticle cohesion after cuticle abrasion (set 1: bleached switches washed 6 times in base, only final wash containing 0.2% arginine): evidence of improved cuticle cohesion | amount of cuticle removed by abrasion (set 1: bleached switches washed 6 times in base, only final wash containing 0.2% arginine, compared with set 3 (no arginine)): Significantly less cuticle was removed than set 3 | removed cuticle sample size and appearance (set 2: bleached switches washed 6 times in shampoo base with 0.2% arginine): closer in sample size and appearance to the unbleached sample | cuticle cohesion after cuticle abrasion (set 2: bleached switches washed 6 times in shampoo base with 0.2% arginine, compared with set 3 (base without arginine)): significantly better cuticle cohesion
